Assay results published in PubChem BioAssay (NCI).
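Exposure lasted 48 hours, with cells grown in 96-well plates and compounds tested at five concentrations. TGI: total growth inhibition.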

Columns and labels:
Test in all cases: NCI-60 cell line screen, 48 h
786-0 renal = tested on: 786-0 renal
A498 renal = tested on: A498 renal
A549 NSCLC = tested on: A549 NSCLC
ACHN renal = tested on: ACHN renal
BT-549 breast = tested on: BT-549 breast
CAKI-1 renal = tested on: CAKI-1 renal
CCRF-CEM leukemia = tested on: CCRF-CEM leukemia
COLO 205 colon = tested on: COLO 205 colon
DLD-1 colon = tested on: DLD-1 colon
DMS 114 small cell lung = tested on: DMS 114 small cell lung
DMS 273 small cell lung = tested on: DMS 273 small cell lung
DU-145 prostate = tested on: DU-145 prostate
EKVX NSCLC = tested on: EKVX NSCLC
HCC-2998 colon = tested on: HCC-2998 colon
HCT-116 colon = tested on: HCT-116 colon
HCT-15 colon = tested on: HCT-15 colon
HL-60(TB) leukemia = tested on: HL-60(TB) leukemia
HOP-18 NSCLC = tested on: HOP-18 NSCLC
HOP-62 NSCLC = tested on: HOP-62 NSCLC
HOP-92 NSCLC = tested on: HOP-92 NSCLC
HS 578T breast = tested on: HS 578T breast
HT29 colon = tested on: HT29 colon
IGROV1 ovarian = tested on: IGROV1 ovarian
K-562 leukemia = tested on: K-562 leukemia
KM12 colon = tested on: KM12 colon
KM20L2 colon = tested on: KM20L2 colon
LOX IMVI melanoma = tested on: LOX IMVI melanoma
LXFL 529 NSCLC = tested on: LXFL 529 NSCLC
M14 melanoma = tested on: M14 melanoma
M19-MEL melanoma = tested on: M19-MEL melanoma
MALME-3M melanoma = tested on: MALME-3M melanoma
MCF7 breast = tested on: MCF7 breast
MDA-MB-231 breast = tested on: MDA-MB-231 breast
MDA-MB-435 = tested on: MDA-MB-435
MDA-N = tested on: MDA-N
MOLT-4 leukemia = tested on: MOLT-4 leukemia
NCI-H226 lung = tested on: NCI-H226 lung
NCI-H23 lung = tested on: NCI-H23 lung
NCI-H460 lung = tested on: NCI-H460 lung
NCI-H522 lung = tested on: NCI-H522 lung
NCI/ADR-RES ovarian = tested on: NCI/ADR-RES ovarian
OVCAR-3 ovarian = tested on: OVCAR-3 ovarian
OVCAR-4 ovarian = tested on: OVCAR-4 ovarian
OVCAR-5 ovarian = tested on: OVCAR-5 ovarian
OVCAR-8 ovarian = tested on: OVCAR-8 ovarian
PC-3 prostate = tested on: PC-3 prostate
RPMI-8226 leukemia = tested on: RPMI-8226 leukemia
RXF 393 renal = tested on: RXF 393 renal
RXF-631 renal = tested on: RXF-631 renal
SF-268 CNS = tested on: SF-268 CNS
SF-295 CNS = tested on: SF-295 CNS
SF-539 CNS = tested on: SF-539 CNS
SK-MEL-2 melanoma = tested on: SK-MEL-2 melanoma
SK-MEL-28 melanoma = tested on: SK-MEL-28 melanoma
SK-MEL-5 melanoma = tested on: SK-MEL-5 melanoma
SK-OV-3 ovarian = tested on: SK-OV-3 ovarian
SN12C renal = tested on: SN12C renal
SNB-19 CNS = tested on: SNB-19 CNS
SNB-75 CNS = tested on: SNB-75 CNS
SNB-78 CNS = tested on: SNB-78 CNS
SR leukemia = tested on: SR leukemia
SW-620 colon = tested on: SW-620 colon
T-47D breast = tested on: T-47D breast
TK-10 renal = tested on: TK-10 renal
U251 CNS = tested on: U251 CNS
UACC-257 melanoma = tested on: UACC-257 melanoma
UACC-62 melanoma = tested on: UACC-62 melanoma
UO-31 renal = tested on: UO-31 renal

CN1CCN(Cc2nc3cccc4c3c([n+]2[O-])-c2ccccc2-4)CC1
TGI (786-0 renal): > 100 µM | TGI (A498 renal): > 53.1 µM | TGI (A549 NSCLC): > 51.3 µM | TGI (ACHN renal): > 68.7 µM | TGI (BT-549 breast): > 100 µM | TGI (CAKI-1 renal): 96.9 µM | TGI (CCRF-CEM leukemia): > 82.8 µM | TGI (COLO 205 colon): > 59.7 µM | TGI (DLD-1 colon): > 100 µM | TGI (DMS 114 small cell lung): > 100 µM | TGI (DMS 273 small cell lung): > 100 µM | TGI (DU-145 prostate): 32.1 µM | TGI (EKVX NSCLC): > 100 µM | TGI (HCC-2998 colon): > 100 µM | TGI (HCT-116 colon): > 100 µM | TGI (HCT-15 colon): > 100 µM | TGI (HL-60(TB) leukemia): > 100 µM | TGI (HOP-18 NSCLC): > 100 µM | TGI (HOP-62 NSCLC): > 100 µM | TGI (HOP-92 NSCLC): > 73.7 µM | TGI (HS 578T breast): 97.1 µM | TGI (HT29 colon): > 61.1 µM | TGI (IGROV1 ovarian): > 84.2 µM | TGI (K-562 leukemia): > 100 µM | TGI (KM12 colon): > 66 µM | TGI (KM20L2 colon): > 100 µM | TGI (LOX IMVI melanoma): > 51.5 µM | TGI (LXFL 529 NSCLC): > 100 µM | TGI (M14 melanoma): > 61.1 µM | TGI (M19-MEL melanoma): > 100 µM | TGI (MALME-3M melanoma): > 50.2 µM | TGI (MCF7 breast): 84.9 µM | TGI (MDA-MB-231 breast): 44.3 µM | TGI (MDA-MB-435): 34 µM | TGI (MDA-N): > 100 µM | TGI (MOLT-4 leukemia): > 69.4 µM | TGI (NCI-H226 lung): > 68.1 µM | TGI (NCI-H23 lung): > 61.7 µM | TGI (NCI-H460 lung): > 100 µM | TGI (NCI-H522 lung): > 48.5 µM | TGI (NCI/ADR-RES ovarian): 48.3 µM | TGI (OVCAR-3 ovarian): > 100 µM | TGI (OVCAR-4 ovarian): > 84.4 µM | TGI (OVCAR-5 ovarian): > 100 µM | TGI (OVCAR-8 ovarian): 37.3 µM | TGI (PC-3 prostate): 48.6 µM | TGI (RPMI-8226 leukemia): > 74.4 µM | TGI (RXF 393 renal): 25.9 µM | TGI (RXF-631 renal): > 100 µM | TGI (SF-268 CNS): > 66.5 µM | TGI (SF-295 CNS): > 100 µM | TGI (SF-539 CNS): > 88 µM | TGI (SK-MEL-2 melanoma): > 54.3 µM | TGI (SK-MEL-28 melanoma): > 62.6 µM | TGI (SK-MEL-5 melanoma): 49.9 µM | TGI (SK-OV-3 ovarian): > 100 µM | TGI (SN12C renal): > 100 µM | TGI (SNB-19 CNS): > 100 µM | TGI (SNB-75 CNS): 66.6 µM | TGI (SNB-78 CNS): > 100 µM | TGI (SR leukemia): 31.8 µM | TGI (SW-620 colon): > 100 µM | TGI (T-47D breast): 76.9 µM | TGI (TK-10 renal): > 100 µM | TGI (U251 CNS): > 64 µM | TGI (UACC-257 melanoma): > 64.1 µM | TGI (UACC-62 melanoma): > 56.4 µM | TGI (UO-31 renal): 66.4 µM

O=C1C2=C(C(c3ccccc3)=C1c1ccccc1)c1ccccc1C1(c3ccccc3)C2=C(O)C(c2ccccc2)=C1c1ccccc1 (stereo not drawn)
TGI (786-0 renal): > 100 µM | TGI (A498 renal): > 100 µM | TGI (A549 NSCLC): > 100 µM | TGI (ACHN renal): > 100 µM | TGI (CAKI-1 renal): > 100 µM | TGI (COLO 205 colon): > 100 µM | TGI (DLD-1 colon): > 100 µM | TGI (DMS 114 small cell lung): > 100 µM | TGI (DMS 273 small cell lung): > 100 µM | TGI (EKVX NSCLC): > 100 µM | TGI (HCC-2998 colon): > 100 µM | TGI (HCT-116 colon): > 100 µM | TGI (HCT-15 colon): > 100 µM | TGI (HL-60(TB) leukemia): > 100 µM | TGI (HOP-18 NSCLC): > 100 µM | TGI (HOP-62 NSCLC): > 100 µM | TGI (HOP-92 NSCLC): > 100 µM | TGI (HT29 colon): > 100 µM | TGI (IGROV1 ovarian): > 100 µM | TGI (KM12 colon): > 100 µM | TGI (KM20L2 colon): > 100 µM | TGI (LOX IMVI melanoma): > 100 µM | TGI (LXFL 529 NSCLC): > 100 µM | TGI (M14 melanoma): > 100 µM | TGI (M19-MEL melanoma): > 100 µM | TGI (MALME-3M melanoma): > 100 µM | TGI (MOLT-4 leukemia): > 100 µM | TGI (NCI-H226 lung): > 100 µM | TGI (NCI-H23 lung): > 100 µM | TGI (NCI-H460 lung): > 100 µM | TGI (NCI-H522 lung): > 100 µM | TGI (OVCAR-3 ovarian): > 100 µM | TGI (OVCAR-4 ovarian): > 100 µM | TGI (OVCAR-5 ovarian): > 100 µM | TGI (OVCAR-8 ovarian): > 100 µM | TGI (RPMI-8226 leukemia): > 100 µM | TGI (RXF 393 renal): > 100 µM | TGI (RXF-631 renal): > 100 µM | TGI (SF-268 CNS): > 100 µM | TGI (SF-295 CNS): > 100 µM | TGI (SF-539 CNS): > 100 µM | TGI (SK-MEL-2 melanoma): > 100 µM | TGI (SK-MEL-28 melanoma): > 100 µM | TGI (SK-MEL-5 melanoma): > 100 µM | TGI (SK-OV-3 ovarian): > 100 µM | TGI (SN12C renal): > 100 µM | TGI (SNB-75 CNS): > 100 µM | TGI (SNB-78 CNS): > 100 µM | TGI (SR leukemia): > 100 µM | TGI (SW-620 colon): > 100 µM | TGI (TK-10 renal): > 100 µM | TGI (U251 CNS): > 100 µM | TGI (UACC-257 melanoma): > 100 µM | TGI (UACC-62 melanoma): > 100 µM | TGI (UO-31 renal): > 100 µM
